In article PMC11995238, “Discovery of Highly Potent BET Inhibitors based on a Tractable Tricyclic Scaffold” (ACS Medicinal Chemistry Letters, 2025):
Converted amounts (≈) assume the structure as drawn. “And” between values parts separate entries of the source, which are not always exact repeats. Equal values may be shown once. Read-outs that look alike come from different tables or passages of the source.

Legend:
[1] = parallel artificial membrane permeability assay (PAMPA); type: in vitro ADME
Procedure: Additionally, the in vitro permeability of these compounds was determined by a parallel artificial membrane permeability assay (PAMPA). […] This would be protonated at physiological pH and decrease the overall affinity of the compound toward the hydrophobic membrane region.
(§1) hydrophobicity (chrom LogD7.4), solubility (CAD), permeability (PAMPA)
(§2) and metabolic stability (CLint) have all been described previously.1

BRD4-BD1 [2] = target: T1, BRD4-BD1 (Homo sapiens, UniProt O60885); assay: BRD4-BD1 FRET binding; details: for pIC50 ± SD: n = 4
Procedure: (§3) Potency was determined against BRD4-BD1 using FRET binding, with this being treated as a surrogate of BRD4 activity given the homology between BD1 and BD2 across the BET proteins. , PFI is calculated from hydrophobicity plus aromatic ring count (chromatographic (chrom) logD7.4 + #Ar), with this metric being indicative of developability, or likelihood of progression to a drug candidate. PFI was used to assess the physicochemical profile of compounds, with a target of PFI < 7 as risks for several parameters, including solubility, are increased above this upper limit. Our objective was to develop a BET inhibitor with high potency and favorable physicochemical properties, as determined using PFI and LipE to guide compound optimization.

BRD4-BD1 [3] = target: T1, BRD4-BD1; assay: lipophilic efficiency (LipE = pIC50 – cLogP); details: predicted using Data Warrior
Source text: The final BET inhibitor discussed is BMS-986158 (4) (Figure ).

[4] = in vitro metabolic stability in rat liver microsomes (CLint); type: in vitro ADME, rats; details: n = 1
Procedure: (§4) For both enantiomers, kinetic solubility, permeability and metabolic stability data, the latter measured by in vitro microsomal intrinsic clearance (CLint) in rats and humans, was collected (Table ). , Docking of 44 and 45 into the BRD4-BD1 binding pocket was also carried out (Figures S3–4).
as §1, §2

[5] = hydrophobicity (chrom LogD7.4) and property forecast index (PFI); type: physicochemical; details: for PFI: PFI = chrom LogD7.4 + #Ar; for chromatographic logD: pH 7.4, chromatographic
Procedure: as §3, §1, §2

[6] = in vitro metabolic stability in human liver microsomes (CLint); type: in vitro ADME, humans; details: n = 1
Procedure: as §4, §1, §2

[7] = kinetic solubility by CAD; type: physicochemical; details: n = 1
Procedure: as §4, §1, §2

BRD3 = details: binding to BRD3, reported; cited from earlier work
BRD2 = details: binding to BRD2, reported; cited from earlier work
BRD4 [8] = details: binding to BRD4, reported; cited from earlier work
[9] = test system: panel of human lung cancer cell lines; details: reported; cited from earlier work
c-Myc expression = details: advanced malignancies such as AML; cited from earlier work
[10] = cited from earlier work
tumor cell = details: advanced malignancies such as AML; cited from earlier work
BRD4 [11] = details: BRD4, AlphaScreen; cited from earlier work
BRD4 [12] = details: BRD4, fluorescence polarization; cited from earlier work
[13] = Phase I studies; cited from earlier work
BRD4 [14] = details: BRD4, FRET binding; cited from earlier work
[15] = BRD4-BD1, FRET binding, n = 2, enantiomers
[16] = BRD4-BD1, values for 29, 30, 40

| SMILES | Papp [1] | LipE (BRD4-BD1 [3]) | PFI [5] | pIC50 ± SD (BRD4-BD1 [2]; BRD4-BD1, FRET binding) | other results |
| --- | --- | --- | --- | --- | --- |
| Cc1nnn(C)c1-c1ccc2c3nnc(NCCO)nc3n([C@@H](c3ccccn3)C3CCOCC3)c2c1 (single isomer, unassigned) [Compound 44] | 7.78 ×10⁻⁶ cm/s | 6.16 | 7.14 |  | pIC50 (BRD4-BD1 [2]; [15]): 8.35 ± 0.01; microsomal CLint [4]: < 10 µL/min/mg; chromatographic logD [5]: 2.14; microsomal CLint [6]: < 10 µL/min/mg; Solubility [7]: 134 µg/mL (≈ 268 µM) |
| Cc1nnn(C)c1-c1ccc2c3nnc(NCCO)nc3n([C@H](c3ccccn3)C3CCOCC3)c2c1 (single isomer, unassigned) [Compound 45] | 9.36 ×10⁻⁶ cm/s | 5.83 | 7.14 |  | pIC50 (BRD4-BD1 [2]; [15]): 8.02 ± 0.08; microsomal CLint [4]: < 10 µL/min/mg; microsomal CLint [6]: < 10 µL/min/mg; Solubility [7]: 138 µg/mL (≈ 276 µM) |
| Cc1nnn(C)c1-c1cnc2c3ccc(C(C)(C)O)cc3n([C@@H](c3ccccc3)C3CCOCC3)c2c1 (stereo in doubt) [Compound 4, BMS-986158, reference compound] | 49.8 ×10⁻⁶ cm/s | 3.51 | 9.08 |  | IC50 (BRD3): 1.4 nM; IC50 (BRD2): 0.8 nM; IC50 (BRD4 [8]): 1.1 nM; cytotoxicity [9]: potent cytotoxicity; chromatographic logD [5]: 4.08; Solubility [7]: 109 µg/mL (≈ 220 µM) |
| Cc1sc2c(c1C)C(c1ccc(Cl)cc1)=N[C@@H](CC(=O)OC(C)(C)C)c1nnc(C)n1-2 [Compound 1, JQ1] |  |  |  |  | c-Myc expression (c-Myc expression): effectively downregulate; half-life [10]: 1 h; oral bioavailability [10]: low; tumor cell proliferation (tumor cell): inhibit tumor cell proliferation; pIC50 (BRD4 [11]): 7.10 |
| COc1cc2c(cc1-c1c(C)noc1C)ncc1[nH]c(=O)n([C@H](C)c3ccccn3)c12 [Compound 2, I-BET151] |  |  |  |  | pIC50 (BRD4 [12]): 6.10; c-Myc expression (c-Myc expression): effectively downregulate; cardiotoxicity [13]: exhibited cardiotoxicity; tumor cell proliferation (tumor cell): inhibit tumor cell proliferation |
| CCS(=O)(=O)Nc1ccc(Oc2ccc(F)cc2F)c(-c2cn(C)c(=O)c3[nH]ccc23)c1 [Compound 3, N-(4-(2,4-Difluorophenoxy)-3-(6-methyl-7-oxo-6,7-dihydro-1H-pyrrolo[2,3-c]pyridin-4-yl)phenyl)ethanesulfonamide] |  |  |  |  | c-Myc expression (c-Myc expression): effectively downregulate; pIC50 (BRD4 [14]): 8.82; tumor cell proliferation (tumor cell): inhibit tumor cell proliferation |
| COCCNc1nnc2c(n1)[nH]c1cc(-c3c(C)noc3C)ccc12 [Compound 5a] |  | 4.39 | 6.83 | 6.22 ± 0.05 |  |
| COCCNc1nnc2c(n1)[nH]c1ccc(-c3c(C)noc3C)cc12 [Compound 5b] |  | 3.82 | 6.78 | 5.64 ± 0.05 |  |
| COCCNc1nnc2c3ccc(-c4c(C)noc4C)cc3n(Cc3ccccc3)c2n1 [Compound 12a] |  | 4.22 | 10.6 | 7.53 ± 0.12 |  |
| COCCNc1nnc2c3cc(-c4c(C)noc4C)ccc3n(Cc3ccccc3)c2n1 [Compound 12b] |  | 2.77 | 10.8 | 6.08 ± 0.34 |  |
| COCCNc1nnc2c3ccc(-c4c(C)noc4C)cc3n(Cc3ccc(F)cc3)c2n1 [Compound 13a] |  | 3.93 | 10.7 | 7.34 ± 0.04 |  |
| COCCNc1nnc2c3cc(-c4c(C)noc4C)ccc3n(Cc3ccc(F)cc3)c2n1 [Compound 13b] |  | 2.77 | 10.8 | 6.18 ± 0.05 |  |
| COCCNc1nnc2c3ccc(-c4c(C)noc4C)cc3n(C(c3ccccc3)C3CCOCC3)c2n1 (stereo not drawn) [Compound 22] |  | 3.69 | 10.6 | 8.27 ± 0.31 |  |
| COCCNc1nnc2c3cc(-c4c(C)noc4C)ccc3n(C(c3ccccc3)C3CCOCC3)c2n1 (stereo not drawn) [Compound 23] |  | 1.75 | 10.7 | 6.33 ± 0.03 |  |
| COCCNc1nnc2c3ccc(-c4c(C)noc4C)cc3n(C(c3ccccn3)C3CCOCC3)c2n1 (stereo not drawn) [Compound 24] |  | 4.38 | 9.74 | 8.01 ± 0.11 |  |
| COCCNc1nnc2c3ccc(-c4c(C)noc4C)cc3n(C(c3ccccc3)C3CCNCC3)c2n1 (stereo not drawn) [Compound 27] |  | 3.20 | 7.96 | 7.63 ± 0.05 |  |
| COCCNc1nnc2c3ccc(-c4c(C)noc4C)cc3n(C(c3ccccn3)C3CCNCC3)c2n1 (stereo not drawn) [Compound 28] |  | 4.25 | 7.37 | 7.74 ± 0.12 |  |
| Cc1noc(C)c1-c1ccc2c3nnc(NCCO)nc3n(C(c3ccccn3)C3CCNCC3)c2c1 (stereo not drawn) [Compound 29] | < 0.3 ×10⁻⁶ cm/s | 4.23 | 6.74 and < 7 |  | pIC50 (BRD4-BD1 [2]; [16]): 7.29 ± 0.06 |
| COCCNc1nnc2c3ccc(-c4c(C)nnn4C)cc3n(C(c3ccccn3)C3CCNCC3)c2n1 (stereo not drawn) [Compound 30] | < 0.3 ×10⁻⁶ cm/s | 4.93 | 6.46 and < 7 |  | pIC50 (BRD4-BD1 [2]; [16]): 7.41 ± 0.03 |
| Cc1nnn(C)c1-c1ccc2c3nnc(NCCO)nc3n(C(c3ccccn3)C3CCOCC3)c2c1 (stereo not drawn) [Compound 40] | 10.4 ×10⁻⁶ cm/s | 5.79 | 7.15 |  | pIC50 (BRD4-BD1 [2]; [16]): 7.98 ± 0.17 |
